Read-outs that look alike come from different tables or passages of the source.
Assays:
[1] = tested on: U937 cells; assay: Morphological assessment of apoptosis (Wright-Giemsa cytospins) in U937 cells; assay type: cell-based, human; conditions: for Apoptotic cells (%): PD184352 10 μM, GFX 1 μM, safingol 2 μM, mean ± SD; for effect on induction of apoptosis by UCN-01 and PD184352: 10 h, caspase inhibitor 20 μM; for effect on induction of apoptosis by UCN-01 and PD184352 / effect on apoptosis in PD184352/UCN-01-treated cells: UCN-01 150 nM + PD184352 10 μM; for effect on apoptosis in PD184352/UCN-01-treated cells: SB203580 10 μM, CHX 1 mM
Description: (§1) Experimental Format. All of the experiments were performed using logarithmically growing cells (3-5×10^5 cells/ml). Cell suspensions were placed in sterile 25 cm^2 T-flasks (Corning, Corning, N.Y.) and incubated with MEK or PKC inhibitors for 30 min at 37° C. At the end of this period, UCN-01 (or in some cases, caffeine) was added to the suspension, and the flasks were placed in 37° C./5% CO2 incubator at various intervals, generally 18 h. In some studies, the p38 MAP kinase inhibitor SB203580 was added concurrently with MEK inhibitors. After drug treatment, cells were harvested and subjected to further analysis as described below.
Analysis of Apoptosis. […] For each condition, 5 to 10 randomly selected fields/condition were evaluated, encompassing at least 500 cells (Vrana and Grant, 2001). To confirm the results of morphological analysis, in some cases cells were also evaluated by TUNEL staining (Gorczyca et al., 1993) and assessment of oligonucleosomal DNA fragmentation of total DNA. DNA fragmentation was analyzed by 1.8% agarose gel electrophoresis as described previously (Jarvis et al., 1994). For TUNEL staining, cytocentrifuge preparations were obtained and fixed with 4% formaldehyde. The slides were treated with acetic acid/ethanol (1:2), stained with terminal transferase reaction mixture containing terminal transferase reaction buffer, 0.25 units/ ml terminal transferase, 2.5 mM CoCl2, and 2 pmol fluorescein-12-dUTP (Boehringer Mannheim, Indianapolis, Ind.), and visualized using fluorescence microscopy.

[2] = tested on: U937 cells; assay: Loss of mitochondrial membrane potential (reduced DiOC6 uptake, flow cytometry) in U937 cells; assay type: cell-based, human; conditions: for "Low" DiOC6 (% cells): PD184352 10 μM, GFX 1 μM, safingol 2 μM, mean ± SD; for effect on loss of ΔΨm by UCN-01 and PD184352: 10 h, caspase inhibitor 20 μM; for effect on loss of ΔΨm by UCN-01 and PD184352 / effect on mitochondrial injury (loss of ΔΨm) in PD184352/UCN-01-treated cells: UCN-01 150 nM + PD184352 10 μM; for effect on mitochondrial injury (loss of ΔΨm) in PD184352/UCN-01-treated cells: SB203580 10 μM, CHX 1 mM
Description: as §1
Analysis of Mitochondrial Membrane Potential (ΔΨm). Cells 2×10^5 were incubated with 40 nM DiOC6 (Molecular Probes Inc., Eugene, Oreg.) in PBS at 37° C. for 20 min and then analyzed by flow cytometry as described previously (Wang et al., 1999).

[3] = tested on: mammary and prostate carcinoma cells; assay: Apoptosis by double stranded DNA breaks (TUNEL) in carcinoma cells, all cell types examined; assay type: cell-based, human; conditions: for effect on potentiation of apoptosis by MEK1/2 inhibitor and UCN-01: carcinoma cells, 24 h, 25 μM PD98059 + 150 nM UCN-01, caspase inhibitor 20 μM
Description: (§2) Terminal Uridyl-Nucleotide End Labeling (TUNEL) for apoptosis.

[4] = tested on: MAPK/ERK; assay: p42 MAPK immune complex kinase assay in carcinoma cells; assay type: cell-based, human; conditions: MCF7, MDA-MB-231, T47D and DU145 cells; UCN-01 150 nM; MEK1/2 inhibitors (PD98059 25 μM, PD184352 10 μM, U0126 5 μM) given with UCN-01
Description: Immunoprecipitations from Lysates. Fifty microliters of Protein A agarose (Ag) slurry (25 μl bead volume) was washed twice with 1 ml PBS containing 0.1% (v/v) Tween 20, and resuspended in 0.1 ml of the same buffer. Antibodies (2 μg, 20 μl), serum (20 μl) were added to each tube and incubated (3 h, 4° C.). For pre-conjugated antibodies,10 μl of slurry (4 μg antibody) was used. Clarified equal aliquots of lysates (0.25 ml, 100 μg total protein) were mixed with Ag-conjugated antibodies in duplicate using gentle agitation (2.5 h, 4° C.). Ag-antibody-antigen complexes were recovered by centrifugation, the supernatant discarded, and washed (10 min) sequentially with 0.5 ml buffer A (twice), PBS and buffer B [25 mM Hepes, pH 7.4, 0.1 mM Na3VO4].
Assay of p42^MAPK activity. Immunoprecipitates were incubated (final volume 50 μl ) with 50 μl of buffer B containing 0.2 mM [γ-^32P]ATP (5000 cpm/pmol), 1 μM Microcystin-LR, 0.5 mg/ml myelin basic protein NP), which initiated reactions at time=0. After 20 min., 40 μl of the reaction mixtures were spotted onto a 2 cm circle of P81 paper (Whatman, Maidstone, England) and immediately placed into 180 mM phosphoric acid. Papers were washed four times (10 min each) with phosphoric acid, and once with acetone, and ^32P-incorporation into MBP was quantified by liquid scintillation spectroscopy.

[5] = tested on: MDA-MB-231 cells; assay: TUNEL apoptosis in MDA-MB-231 cells; assay type: cell-based, human; conditions: MDA-MB-231, 24 h; with 150 nM UCN-01; PD184352 10 μM, U0126 5 μM; FIG. 8A
Description: as §2

[6] = tested on: MCF7 cells; conditions: MCF7, 24 h; with 150 nM UCN-01; PD184352 10 μM, U0126 5 μM; FIG. 8B
Description: Terminal Uridyl-Nucleotide End Labeling (TUNEL) for apoptosis. […] Cells were isolated 24 h after irradiation by trypsinizationi followed by centrifugation onto glass slides (cytospin). Terminal Uridyl-Nucleotide End Labeling (TUNEL) was performed on these cells as described previously [Wang et al., 1999; Park et al., 1999]. Randomly selected fields of fixed cells (150 cells per field, n=5 per slide) were counted initially using propidium iodide counter stain, followed by examination and counting of TUNEL positive staining cells of the same field under FITC/fluorescence light.

[7] = tested on: DU145 cells; assay: Colony forming (clonogenic) assay in DU145 cells; assay type: cell-based, human; conditions: 25 μM PD98059, 150 nM UCN-01, replated 48 h, ± SEM
Description: (§3) Colony forming (clonogenic) assay. Cells were plated 36 h prior to experimentation. Cells were pre-treated with MEK1/2 inhibitor as indicated, 2 h prior to exposure. Cells were irradiated (2 Gy). After a further 48 h, cells were isolated by tryptic digestion and single cell suspensions plated on Linbro® plates at densities of 500 cells/well and 1000 cells/well. Colony formation was defined as a colony of 50 cells or greater, 10 days after plating.

[8] = tested on: MCF7 cells; assay: Colony forming (clonogenic) assay in MCF7 cells; assay type: cell-based, human; conditions: 25 μM PD98059, 150 nM UCN-01, replated 48 h, ± SEM
Description: as §3

[9] = tested on: T47D cells; assay: Colony forming (clonogenic) assay in T47D cells; assay type: cell-based, human; conditions: 25 μM PD98059, 150 nM UCN-01, replated 48 h, ± SEM
Description: as §3

[10] = tested on: MDA-MB-231 cells; assay: Colony forming (clonogenic) assay in MDA-MB-231 cells; assay type: cell-based, human; conditions: MDA-MB-231 (MDA), 25 μM PD98059, 150 nM UCN-01, replated 48 h, ± SEM
Description: as §3

## CCCCCCCCCCCCCCC[C@H](O)[C@@H](N)CO [Safingol]
[1]; U937 cells, 18 h
  Apoptotic cells (%): 1.9 ± 0.2%
[2]; 18 h
  "Low" DiOC6 (% cells): 13.6 ± 0.8%

## Cn1c(=O)c2c(ncn2C)n(C)c1=O [Caffeine]
[1]; U937 cells, 18 h, caffeine 2 mM with PD184352 10 μM, FIG. 4A
  apoptosis in PD184352-treated cells: substantially increased
[2]; 18 h, caffeine 2 mM with PD184352 10 μM, FIG. 4A
  mitochondrial damage (reduction in ΔΨm) in PD184352-treated cells: substantially increased

## ZVAD-fmk
[1]; U937 cells
  effect on induction of apoptosis by UCN-01 and PD184352: blocked
[2]
  effect on loss of ΔΨm by UCN-01 and PD184352: blocked
[3]
  effect on potentiation of apoptosis by MEK1/2 inhibitor and UCN-01: abolished

## N#CC(=C(/N)Sc1ccccc1N)/C(C#N)=C(\N)Sc1ccccc1N [U0126]
[1]
  cell death (morphological features of apoptosis) on coadministration with UCN-01: marked potentiation of cell death
[4]
  MAPK/ERK activity (immune complex kinase assay): opposed
[5]
  apoptosis in combination with UCN-01: enhanced apoptosis
[6]
  apoptosis in combination with UCN-01: enhanced apoptosis

## C[C@@H]1C[C@@H]([C@H](O)CC2CC(=O)NC(=O)C2)C(=O)[C@@H](C)C1 [CHX, cycloheximide]
[1]; U937 cells, 18 h
  effect on apoptosis in PD184352/UCN-01-treated cells: not attenuated
[2]; 18 h
  effect on mitochondrial injury (loss of ΔΨm) in PD184352/UCN-01-treated cells: not attenuated

## C[S+]([O-])c1ccc(-c2nc(-c3ccncc3)c(-c3ccc(F)cc3)[nH]2)cc1 (centres unmarked) [SB203580]
[1]; U937 cells, 18 h
  effect on apoptosis in PD184352/UCN-01-treated cells: only partially attenuated
[2]; 18 h
  effect on mitochondrial injury (loss of ΔΨm) in PD184352/UCN-01-treated cells: only partially attenuated

## IETD
[1]; U937 cells
  effect on induction of apoptosis by UCN-01 and PD184352: ineffective
[2]
  effect on loss of ΔΨm by UCN-01 and PD184352: ineffective
[3]
  effect on potentiation of apoptosis by MEK1/2 inhibitor and UCN-01: partially attenuated

## bisindolylmaleimide [GFX]
[1]; U937 cells, 18 h
  Apoptotic cells (%): 1.9 ± 0.2%
[2]; 18 h
  "Low" DiOC6 (% cells): 13.2 ± 0.6%
[3]; all carcinoma cell types examined, bisindolylmaleimide 1 μM in place of UCN-01
  apoptosis after 24 h: did not mimic the actions of UCN-01

## COc1cccc(-c2cc(=O)c3ccccc3o2)c1N [PD98059]
[1]; U937 cells, 24 h, with 200 nM UCN-01, PD98059 50 μM, U0126 20 μM (FIG. 1C, D)
  cell death (morphological features of apoptosis) on coadministration with UCN-01: marked potentiation of cell death
[4]
  MAPK/ERK activity (immune complex kinase assay): opposed
[7]; DU145, 2 Gy
  clonogenic survival (colonies, normalized to control unirradiated cells = 100%): 65 ± 2%
[7]; DU145, mock irradiated
  clonogenic survival (colonies, normalized to control unirradiated cells = 100%): 99 ± 6%
[8]; MCF7, 2 Gy
  clonogenic survival (colonies, normalized to control unirradiated cells = 100%): 39 ± 3 %
[8]; MCF7, mock irradiated
  clonogenic survival (colonies, normalized to control unirradiated cells = 100%): 91 ± 5%
[9]; 2 Gy
  clonogenic survival (colonies, normalized to control unirradiated cells = 100%): 69 ± 5%
[9]; mock irradiated
  clonogenic survival (colonies, normalized to control unirradiated cells = 100%): 97 ± 2%
[10]; 2 Gy
  clonogenic survival (colonies, normalized to control unirradiated cells = 100%): 44 ± 1 %
[10]; mock irradiated
  clonogenic survival (colonies, normalized to control unirradiated cells = 100%): 91 ± 1%

## O=c1cc(N2CCOCC2)oc2c(-c3ccccc3)cccc12 [LY294002]
[1]; U937 cells, 24 hr, 100 nM UCN-01, 10 μM LY294002, FIG. 14
  percentage of apoptotic cells: about 20%
